The source of these data is PMC3723632, “A Multi-targeted Drug Candidate with Dual Anti-HIV and Anti-HSV Activity” (PLoS Pathogens, 2013).

Broadly, the EC90 is the concentration needed for an effect of 90%. Read a low EC90 as an effect from little substance. Broadly, the EC99 is the concentration needed for an effect of 99%.

Values after ≈ are worked out from the molar mass of the structure shown.

In one data set the test system is HSV-1 (RV-174). As to the kind of experiment: Virus yield reduction assay in HEL cells, HSV-1 clinical isolate. Particulars: for EC90: Human alphaherpesvirus 1, HEL.
In another data set the test system is M/M cultures. Put plainly: Viability of M/M cultures. The following applies: 100 µg/ml. Type of data set: cell-based, human. The protocol:
Monocyte/macrophage (M/M) lineage cells can be infected by HSV-2 and HIV-1. M/M reside in genital herpes lesions and are thought to be reservoirs of HIV [6], [23]. […] Lower concentrations were dose-dependently inhibitory, with EC50 values ranging between 0.02 and 0.2 µg/ml (Table 1, Table 3).

The subject of a further data set is PBMC. Put plainly: Flow cytometry of activation markers on PBMC. Particulars: 72 h exposure. Type of data set: cell-based, human. The protocol: Figure 10 Expression of activation markers on PBMCs treated with adefovir, tenofovir, or PMEO-DAPym. PBMCs were incubated with adefovir, tenofovir, or PMEO-DAPym for 3 days. The mitogenic lectin PHA (at 2 µg/ml) was included as a positive control. We measured cell surface expression of CD4 and the activation markers CD69 (top panel), CD25 (middle panel), and HLA-DR (bottom panel) using flow cytometry with the […] CD4-specific mAb (clone SK3) and the phycoerythrin-labeled CD69, CD25, HLA-DR-specific mAbs. Shown are means ± SEM from two independent experiments.
PBMC were cultured in the presence of adefovir, tenofovir, and PMEO-DAPym and incubated at 37°C in a humidified, 5% CO2-controlled atmosphere. The expression of cellular activation markers was measured after 3 days of culture. […] Finally, the cells were washed with PBS, fixed with 1% formaldehyde solution, and analyzed with a FACSCalibur (BD Biosciences, San Jose, CA); data were acquired with CellQuest software and further analyzed with the FLOWJO software (Tree Star, San Carlos, CA). The expression of the chemokine receptors was measured after 24 h, and PBMC were incubated with PerCP-conjugated anti-CD4 mAb (clone SK3) in combination with APC-conjugated anti-CXCR4 mAb (clone 12G5) and PE-conjugated anti-CCR5 (clone 2D7) or anti-CXCR3 (clone 1C6). […]
On the technique in general: A flow cytometer gives signals particle by particle.

The next data set concerns HSV-2 (G). Details: method as in PMID 22018238. Particulars: tonsilar tissue; cited from earlier work.

Procedure for HSV-1 (RV-174): These assays were carried out in HEL cell monolayers at different times post infection. […] After 2 h at 37°C, the cells were washed and medium containing different concentrations of PMEO-DAPym (in duplicate) was added. Following 24, 48, and 72 h of incubation, we released the viruses by freeze-thawing and then titrated them using a plaque assay in HEL cells.

`Nc1cc(OCCOCP(=O)(O)O)nc(N)n1` [PMEO-DAPym, 6-phosphonylmethoxyethoxy-2,4-diaminopyrimidine]: the EC90 with HSV-1 (RV-174) (24 h, RV-174, moi = 5x10^-3, 24 hours) was less than 1 µg/mL; with HSV-1 (RV-174) (24 h, RV-174, moi = 5x10^-4, 24 hours) it was 2.27 µg/mL (≈ 8.59 µM); in the data set with HSV-1 (RV-174) (48 h, RV-174, moi = 5x10^-3, 48 hours) it was 1 µg/mL (≈ 3.79 µM); in the data set with HSV-1 (RV-174) (48 h, RV-174, moi = 5x10^-4, 48 hours), less than 1 µg/mL; with HSV-1 (RV-174) (72 h, RV-174, moi = 5x10^-3, 72 hours), 1 µg/mL (≈ 3.79 µM); with HSV-1 (RV-174) (72 h, RV-174, moi = 5x10^-4, 72 hours) it was less than 1 µg/mL. The EC99 in the data set on HSV-1 (RV-174) (RV-174, moi = 5x10^-3, 24 hours) is 3.81 µg/mL; with HSV-1 (RV-174) (RV-174, moi = 5x10^-3, 48 hours), 4.96 µg/mL; in the data set with HSV-1 (RV-174) (RV-174, moi = 5x10^-3, 72 hours), 3.92 µg/mL; with HSV-1 (RV-174) (RV-174, moi = 5x10^-4, 24 hours), 6.26 µg/mL; in the data set with HSV-1 (RV-174) (RV-174, moi = 5x10^-4, 48 hours), 2.74 µg/mL; with HSV-1 (RV-174) (RV-174, moi = 5x10^-4, 72 hours) it was 3.59 µg/mL. The “effect on the viability of M/M cultures” value in the data set on M/M cultures is “No effect on the viability”. Further, the “upregulation of cell activation markers (HLA-DR, CD25, CD69 and others)” value in the data set on PBMC was “none of the cell activation markers”.

On to `C[C@H](Cn1cnc2c(N)ncnc21)OCP(=O)(O)O` [Tenofovir, 9-(2-phosphonylmethoxypropyl)adenine], for which the “concentration that comparably inhibited HSV-2 replication” value in the data set with HSV-2 (G) is 240 µg/mL.
